Test results taken from patent publication US20050209295A1, “Methimazole derivatives and tautomeric cyclic thiones to inhibit cell adhesion” (priority 2004, published 2005).

Columns and labels:
Type in all cases: cell-based, human
[1] = tested on: VCAM-1; assay: TNF-alpha-induced VCAM-1 RNA levels in aortic endothelial cells (Northern blot); conditions: for % INHIBITION of TNF-alpha-induced VCAM-1 RNA levels: aortic endothelial cells, mean ± SD
Description: (§1) Cell culture and treatment of HAEC: Human aortic endothelial cells (HAEC; Cambrex Bio Science Walkersville, Inc., Walkersville, Md.) are cultured in M199 supplemented with 8% FBS, 100 μg/ml heparin, 10 ng/ml endothelial growth factor, 100 μg/ml hypothalamus extract, 2 mM L-glutamine, 1% non-essential amino acids, 100 units/ml penicillin and 100 μg/ml streptomycin. HAEC are subcultured on gelatin pre-coated: 96-well tissue culture plates (Corning Incorporated; Corning, N.Y.) for viability assays and ELISA; 100-mm tissue culture dishes (BD Falcon; Franklin Lakes, N.J.) for Northern blot analyses, Western blot analyses and EMSA; 35-mm tissue culture dishes (Corning) for adhesion assays and on 24-well tissue culture plates for luciferase promoter assays (BD Falcon). All experiments are performed with confluent HAEC monolayers. Unless noted otherwise, HAEC are treated with 25 ng/ml TNF-α, in the absence or presence of C-10 or 0.25% DMSO (carrier control for C-10), for 2-24 hrs. The concentration of DMSO is held constant at 0.25% (unless indicated otherwise) for all of the C-10 conditions.
(§2) HAEC are washed with PBS and total RNA extracted using a commercial kit (RNeasy Mini Kit; Qiagen Inc.; Valencia, Calif.). 12 μg of total RNA per lane is resolved on 1% denaturing agarose gels containing 0.66M formaldehyde. Gels are capillary blotted on Nytran membranes (Schleicher and Schuell Inc.; Keene, N.H.), UV cross-linked, and used for hybridization. The probe for IRF-1 has been previously described (33). The G3PDH cDNA is from Clontech (Palo Alto, Calif.). […]; cDNAs are labeled with α-^32P-dCTP using the Ladderman Labeling Kit (Takara Biochemical Inc.; Berkeley, Calif.) (33). Northern blots are developed using a BAS 1500 Bioimaging Analyzer (Fuji Photo Film Co., Ltd. Medical Systems USA Inc.; Stanford, Calif.). Each experiment is replicated at least twice.

[2] = tested on: VCAM-1 promoter; assay: TNF-alpha-induced VCAM-1 promoter activity, dual luciferase reporter assay in HAEC
Description: as §1
Dual Luciferase Assay: Four human VCAM-1 promoter deletion constructs of different length, −1641/+12, −288/+12, −228/+12, −85/+12 bp are amplified by PCR from human genomic DNA. Each upstream primer contained a restriction endonuclease Mlu I site located at the 5′-end of the primer. The downstream primer corresponding to the +12 end contained a restriction endonuclease Xho I site at the 5′-end. The PCR products are digested by Mlu I and Xho I (New England Biolabs Inc., Beverly, Mass.) and ligated into a similarly digested pGL3 basic luciferase reporter vector (Promega, Madison, Wis.). Cells are transfected for 24 hrs. with 400 ng of indicated constructs, or pGL3 basic luciferase reporter vector as control, using GeneJuice transfection reagent (Novagen Inc., Madison, Wis.). All cells are also transfected with phRL-TK (Int−) vector (Promega), which contains wildtype Renilla luciferase (Rluc) as an “internal” transfection control. Luciferase assays are conducted with the Dual-Luciferase Reporter Assay System (Promega) on a Lumat LB 9507 tube luminometer. In every experiment, each condition is run in triplicate wells. Each experiment is replicated at least twice.

[3] = tested on: IRF-1; assay: TNF-alpha-induced IRF-1 RNA levels (Northern blot); conditions: for % INIHIBITION of TNF-alpha-induced IRF-1 RNA levels: mean ± SD
Description: as §1, §2

[4] = tested on: ICAM-1; assay: TNF-α induced ICAM-1 mRNA in HAEC (Northern blot)
Description: as §1
HAEC are washed with PBS and total RNA extracted using a commercial kit (RNeasy Mini Kit; Qiagen Inc.; Valencia, Calif.). 12 μg of total RNA per lane is resolved on 1% denaturing agarose gels containing 0.66M formaldehyde. […]

[5] = tested on: U937 cell adhesion to HAEC; assay: Flow adhesion assay: U937 cell adhesion to TNF-α activated HAEC; conditions: shear stress 1.8 dynes/cm^2
Description: U937 cells (American Type Culture Collection; Manassas, Va.) are cultured in RPMI supplemented with 8% FBS, 2 mM L-glutamine, 100 units/ml penicillin and 100 μg/ml streptomycin. For the adhesion assays, U937 cells are washed, resuspended to 1×10^8 cells/ml in RPMI and held on ice (<4 hrs.) until the time they are used in the flow adhesion assay.
Flow adhesion assays: A parallel plate flow chamber (Glycotech; Rockville, Md.), similar to that described by McIntire, Smith and colleagues (34) is used in this study. Our particular set up has been described previously (20). A 35-mm tissue culture dish containing a confluent HAEC monolayer is loaded into the flow chamber. After a brief rinse, U937 cells (5*10^5 cells/ml in assay buffer) are drawn over the HAEC monolayer at a shear stress of 1.8 dynes/cm^2. To determine U937 cell accumulation, the number of U937 cells adherent (either rolling or firmly adherent) to the HAEC monolayer in 8 different fields of view after 2.5 minutes of flow is determined, averaged and normalized to the area of the field of view to give the result for that particular run. Such an assay is done at least 3 times. In certain experiments, TNF-α activated HAEC, in the absence or presence of C-10, are treated with mAbs HEL3/2 or 51-10C9 (10 μg/ml) or a combination of HEL3/2 and 51-10C9. […]

Cn1c(-c2ccccc2)cnc1S [5-Phenylmethimazole]
% INHIBITION of TNF-alpha-induced VCAM-1 RNA levels ([1]; 5.0 mM): 99 ± 3%
% INHIBITION of TNF-alpha-induced VCAM-1 RNA levels ([1]; 10 :M): 75 ± 7%
% INHIBITION of TNF-alpha-induced VCAM-1 RNA levels ([1]; 100 :M): 99 ± 4%
effect on TNF-α induced VCAM-1 mRNA expression ([1]; 2 hr. TNF-α, HAEC, Northern blot): reduced, in a dose-dependent manner
effect on TNF-α induced VCAM-1 mRNA ([1]; 24 hr. TNF-α, HAEC, Northern blot): reduced, in a dose dependent manner
effect on TNF-α induced promoter activities of the four VCAM-1 constructs ([2]; 0.3 mM, 10 ng/ml TNF-α 6 hrs., −1641/+12, −288/+12, −228/+12, −85/+12 bp constructs): inhibits
% INHIBITION of TNF-alpha-induced VCAM-1 promoter activity ([2]; 10 :M, hVCAM-1(−228 to +12)-luciferase construct, mean ± SD): 31 ± 5%
% INHIBITION of TNF-alpha-induced VCAM-1 promoter activity ([2]; 100 :M, hVCAM-1(−228 to +12)-luciferase construct, mean ± SD): 61 ± 3%
inhibition at 5000 µM ([2]; Homo sapiens, 5.0 mM, hVCAM-1(−228 to +12)-luciferase construct, mean ± SD): 72 ± 3%
effect on TNF-α induced IRF-1 mRNA expression in HAEC ([3]; 0.5 mM or 1 mM, 2 hr. TNF-α): reduces
% INIHIBITION of TNF-alpha-induced IRF-1 RNA levels ([3]; 5 mM): 95 ± 15%
% INIHIBITION of TNF-alpha-induced IRF-1 RNA levels ([3]; 10 :M): 65 ± 16%
% INIHIBITION of TNF-alpha-induced IRF-1 RNA levels ([3]; 100 :M): 90 ± 17%
effect on TNF-α induced ICAM-1 mRNA expression ([4]; 2 hr. TNF-α): no effect
effect on TNF-α induced ICAM-1 mRNA expression ([4]; 24 hr. TNF-α): little to no effect
effect on TNF-α induced U937 cell adhesion to HAEC ([5]; 4 hr. TNF-α, C-10 0.5 mM, mAbs 10 μg/ml): little effect
effect on TNF-α induced U937 cell adhesion to HAEC ([5]; 24 hr. TNF-α, C-10 0.1 mM alone vs. DMSO): significantly reduced
